Consider four molecules from ChEMBL document CHEMBL1153590 (Bioorg Med Chem Lett, 2009).

Active and inactive are the calls of the source. No cut-off for these calls is given here. Bounds are passed on as bounds.

Experiment [1] can be described thus: Ratio of compound ED50 to paclitaxel ED50 for inhibition of tubulin assembly.
A short description of experiment [2]: Inhibition of tubulin assembly.
Experiment [3] deals with PC-3. As to the kind of experiment: Cytotoxicity against human PC3 cells after 4 days by sulforhodamine B assay. The format is functional, cell-based. As to conditions: PC-3, 96 h. (The SRB assay estimates cell density from bound dye.)
The nature of experiment [4]: Displacement of fluorescent N-AB-PT from tubulin by spectrofluorimetry.
Experiment [5] has as its system PC-3. As to the kind of experiment: Ratio of compound IC50 to paclitaxel IC50 for cytotoxic activity against human PC3 cells. The format is functional.
Experiment [6] concerns A2780. As to the kind of experiment: Ratio of compound IC50 to paclitaxel IC50 for cytotoxic activity against human A2780 cells. The class given is functional.
Experiment [7] in a line: Ratio of paclitaxel Kd to compound Kd for displacement of fluorescent N-AB-PT from tubulin.
Experiment [8] can be described thus: Effect on tubulin polymerization at 50 uM by cold-induced disassembly assay.
Experiment [9] deals with A2780. As to the kind of experiment: Cytotoxicity against human A2780 cells after 4 days by sulforhodamine B assay. The class given is functional, cell-based. Conditions: A2780, 96 h.
Another experiment concerns P388. As to the kind of experiment: Ratio of docetaxel to compound in cytotoxic activity against mouse P388 cells. The format is functional.

`CC(=O)O[C@H]1C(=O)[C@@]2(C)[C@H]([C@H](OC(=O)c3ccccc3)[C@@]3(O)C[C@@H](OC(=O)[C@@H](O)[C@@H](NC(=O)c4ccccc4)c4ccccc4C)C(C)=C1C3(C)C)[C@@]1(OC(C)=O)CO[C@@H]1C[C@@H]2O` (stereo in doubt): in [1], the Ratio ED50 was 5.1.

In turn, `CC(=O)O[C@H]1C(=O)[C@@]2(C)[C@H]([C@H](OC(=O)c3ccccc3)[C@]3(O)C[C@H](OC(=O)[C@H](O)[C@@H](NC(=O)c4ccccc4)c4ccccc4)C(C)=C1C3(C)C)[C@]1(OC(C)=O)CO[C@@H]1C[C@@H]2O` [PACLITAXEL] yielded an ED50 in experiment [2] of 480 nM. In addition, 1.4 nM corresponded to half-maximal inhibition with PC-3 [3] (IC50). In addition, the Ka in [4] was 4.76e+07 M⁻¹.

Take `CC(=O)O[C@H]1C(=O)[C@@]2(C)[C@H]([C@H](OC(=O)c3ccccc3)[C@]3(O)C[C@H](OC(=O)[C@H](O)[C@H]4NC(=O)Oc5ccccc54)C(C)=C1C3(C)C)[C@]1(OC(C)=O)CO[C@@H]1C[C@@H]2O`: the “Ratio IC50” value in the experiment with PC-3 [5] and in the experiment with A2780 [6] was 1900 in each case. Moreover, in [2], the ED50 is > 25000 nM. For the same molecule, in [7], the Ratio was found to be 150. The IC50 (usually the midpoint of a concentration-inhibition curve) with PC-3 [3] is > 5000 nM; in the experiment with A2780 [9] it was > 20000 nM. In [8], the outcome was inactive. In addition, the Ratio ED50 in experiment [1] was 50.

Regarding `COC(=O)N[C@@H](c1ccccc1)[C@@H](O)C(=O)O[C@H]1C[C@@]2(O)[C@@H](OC(=O)c3ccccc3)[C@@H]3[C@]4(OC(C)=O)CO[C@@H]4C[C@H](O)[C@@]3(C)C(=O)[C@H](OC(C)=O)C(=C1C)C2(C)C`, the ED50 in [2] was determined as 430 nM. Also, in the experiment with P388, the Ratio was 150. Besides, the IC50 in the experiment with PC-3 [3] is 2 nM; in the experiment on A2780 [9] it was 9 nM. Besides, the Ka in experiment [4] was 1.11e+07 M⁻¹.
